Assay results from publication PMC9091416 (RSC Advances, 2018).

Assays:
Assay in all cases: cells
NCM460 cells = assay type: cell-based; settings: Homo sapiens, NCM460, read-out: IC50 (μM) ± SD (μM), NCM460
HCT-116 cells = assay type: cell-based, human
DLD1 cells = assay type: cell-based; settings: Homo sapiens, DLD-1, read-out: IC50 (μM) ± SD (μM), DLD1
RKO cells = assay type: cell-based; settings: Homo sapiens, read-out: IC50 (μM) ± SD (μM), RKO

## CC(=O)OC[C@H]1OC(OC(C)=O)[C@H](n2cc(C(=O)NC3([As](O)O)C=CC=CC3)nn2)[C@@H](OC(C)=O)[C@@H]1OC(C)=O (stereo partly drawn) [Compound 8, 1-(1-(1,3,4,6-tetra-O-acetyl-2-deoxy-D-glucopyranos-2-yl) -1H-1,2,3-triazole-4-carboxamido)phenyl arsonous acid]
NCM460 cells
  IC50: 16.1 ± 2.21 µM
HCT-116 cells
  Selectivity index: 0.91
HCT-116 cells; Homo sapiens, HCT-116, read-out: IC50 (μM) ± SD (μM), HCT-116
  IC50: 17.7 ± 1.44 µM
DLD1 cells
  IC50: 15 ± 2.72 µM
RKO cells
  IC50: 4.57 ± 0.17 µM
